Values after ≈ are worked out from the molar mass of the structure shown. Like-named read-outs stand apart in the source and are kept apart here.
Key:
[1] = tested on: Mycobacterium tuberculosis H37Ra (ATCC 25177); test: microplate Alamar Blue assay (MABA), MIC, H37Ra; type: cell-based
Method: (§1) Compound MIC was conducted by ShangHai Chempartner Co., Ltd (Shanghai, China) using the microplate Alamar Blue assay (MABA) against Mycobacterium tuberculosis H37Ra (ATCC 25177). Cytotoxicity of tested compounds was assessed on Vero cells.

[2] = tested on: Mycobacterium tuberculosis Erdman; test: microplate Alamar blue assay (MABA), MIC; type: cell-based
[3] = pharmacokinetic study in SD rats; type: in vivo; settings: female, rat, plasma, SD rats
Method: All animal experiments have been approved by the Institutional Animal Care and Treatment Committee of Sichuan University in China and were carried out in accordance with the approved guidelines. SPF female SD rats weighing 180–220 g were used in the pharmacokinetic study. The rats were fasted overnight before dosing. Every treatment group contain 3 rats. Rats were dosed with SKLB-TB1001 or BTZ043 suspension at 5 mg/kg (i.v. and p.o.). Compounds were dissolved in 5% DMSO/10% Solutol HS15 in saline for intravenous injection and suspended in 0.5% CMC for oral administration. Blood was collected from the jugular vein of each animal at the following times after administration of drugs: 0.083, 0.25, 0.5, 1, 2, 4, 6, 8 and 24 h after a single i.v. dosing; and 0.25, 0.5, 1, 2, 4, 6, 8 and 24 h after a single oral dosing. All blood samples were centrifuged at 3000 r/min for 10 min to obtain serum which was then stored at −20 °C. 150 μL of the serum was added to 500 μL of acetonitrile and the mixture was centrifuged at 13000 r/min for 10 min to remove protein. The supernatant was dried and dissolve in 100 μL of acetonitrile, the solution was centrifuged at 13000 r/min for 10 min. The supernatant was moved to a sample bottle for HPLC analysis. Total area under the concentration time curve (AUC), the elimination half-time (t1/2), the peak concentration (Cmax) and the time to reach peak concentration (Tmax) of samples were determined directly from the experimental data using WinNonlin V6.2.1.

M. tuberculosis Erdman = test: in vivo acute M.tb Erdman infection mouse model; parameters: species or system Mycobacterium tuberculosis; settings: BALB/c mice
Vero cells = test: cytotoxicity, MTT assay; type: cell-based; settings: Chlorocebus sabaeus
Method: The compounds were examined for toxicity (IC50) using MTT assay. Briefly, cells (3 ~ 5 × 10^3 cells/well) were seeded in a 96-well plate. After 24 h incubation, the cells were treated with various concentrations of drugs for 24, 48, 72 h, respectively. Columns one and two in the assay plates contained-media +0.1% DMSO for a negative control ,Then, 20 μl of a 5 mg/mL MTT solution was added to each well, and the plates were incubated for an additional 2~4 h at 37 °C. The medium was subsequently discarded, and DMSO 150 μL was added to dissolve the formazan. Oscillate 15 min, the OD 570 was measured using a Spectra MAX M5 microplate spectrophotometer (Molecular Devices, CA, USA), and the IC50 values were calculated.
as §1

MDR-TB clinical isolates = test: microbe, parasite or virus in culture; type: cell-based; settings: Mycobacterium tuberculosis
M. tuberculosis H37Rv = test: MABA checkerboard synergy assay; type: cell-based, Mycobacterium tuberculosis; settings: for MIC: Mycobacterium tuberculosis, H37RV, checkerboard, drug alone, read-out: MIC against H37Rv, MIC alone
[4] = tested on: Mycobacterium tuberculosis H37Rv; test: microplate Alamar blue assay (MABA), MIC; type: cell-based; settings: replicating H37Rv
XDR-TB clinical isolates = test: microbe, parasite or virus in culture; type: cell-based, Mycobacterium tuberculosis; settings: Mycobacterium tuberculosis
[5] = tested on: M. tuberculosis Erdman in J774A.1 cells; test: macrophage assay, intracellular activity; type: cell-based, Mycobacterium tuberculosis; settings: for Fold(log) reduction: decrease of log10 CFU between D7 and treatment group, J774A.1, 0.02 μM (Fig. 2 legend: 0.02 μg/mL)
Method: As described previously, J774A.1 cells were grown in 75-cm2 cell culture flasks in 10% FBS in Dulbecco’s modified Eagle’s medium (DMEM) until confluency. The cells were detached using a cell scraper, and then centrifuged at 200 g for 5 min at room temperature. The cells were incubated at 37 °C under 5% CO2 for 16 h after distributing into 24-well plates containing coverslips. M. tuberculosis Erdman (ATCC 35801) were diluted to a final concentration of 1 × 10^5 to 3 × 10^5 CFU/mL with DMEM after thawing and sonicating from frozen cultures. And 500 ul of the dilution was dispensed to each well of a new 24-well plate. Followed by, J774A.1 cells on coverslips were infected by incubation with M. tuberculosis Erdman at 37 °C for 2 h. Coverslips were then washed with HBSS and transferred to new 24-well plates. The Cultures were treated in triplicate with compounds at 0.02 μM containing DMEM and incubated at 37 °C under 5% CO2 for 16 h. At D 0 (for untreated controls) and after 7 days of incubation, macrophage cells were lysed by addition of 200 μL of 0.25% sodium dodecyl sulfate. The plates were incubated at 37 °C for 10 min, and 200 μL of DMEM was added. The lysate was sampled using a microtube and sonicated for 15 s. Then 1:1, 1:10, 1:100, and 1:1,000 dilutions were plated on 7H11 agar plates and CFU counts determined after 2 to 3 weeks of incubation at 37 °C.

Mycobacterium avium = test: microdilution plate assay, MIC; type: cell-based

Which results are given for `O=[N+]([O-])c1cc(C(F)(F)F)cc2c(=S)nc(N3CCC4(CC3)OCCO4)sc12` [SKLB-TB1001, 8-nitro-2-(1,4-dioxa-8-azaspiro[4.5]decan-8-yl)-6-(trifluoromethyl)-4H-benzo[e][1,3]thiazine-4-thione]?
MIC [1]: < 0.1 µM; MIC [2]: < 0.05 µg/mL; bioavailability ([3]; oral, AUC (p.o., 5 mg/kg)/AUC(i.v., 5 mg/kg), read-out: F, absolute oral bioavailability): 44.4%; half-life ([3]; po, 5 mg/kg, terminal half-life for elimination): 1.45 h; AUC ([3]; po, p.o., 5 mg/kg, t = 0 to infinity, read-out: AUC): 847 ng·h/mL; Tmax ([3]; po, p.o., 5 mg/kg, read-out: Tmax): 1.13 h; Cmax ([3]; po, p.o., 5 mg/kg, read-out: Cmax): 193 ng/mL; reduction of M.tb CFU in lungs compared to the vehicle group (M. tuberculosis Erdman; 150 mg/kg daily for 4 weeks): 3.4 logs; reduction of M.tb CFU in lungs compared to treatment initiation (M. tuberculosis Erdman; 150 mg/kg daily for 4 weeks): 0.87 logs; Log10 CFU (SD), bacterial burden in mouse lungs (M. tuberculosis Erdman; Day-36, 150 mg/kg oral daily from day 10): 2.84 (2.93); IC50 (Vero cells; Vero, cytotoxicity, read-out: IC50 Vero): > 100 µg/mL; IC50 (Vero cells; cytotoxicity on Vero cells, read-out: IC50): > 20 µM; MIC (MDR-TB clinical isolates; read-out: MIC, MDR-TB strain M3): < 0.0156 µg/mL; MIC (MDR-TB clinical isolates; read-out: MIC, MDR-TB strain M4): < 0.0156 µg/mL; MIC (MDR-TB clinical isolates; read-out: MIC, MDR-TB strain M8): < 0.0156 µg/mL; MIC (MDR-TB clinical isolates; read-out: MIC, MDR-TB strain M18): < 0.0156 µg/mL; MIC (M. tuberculosis H37Rv; 336 h): 0.02 µg/mL; MIC (M. tuberculosis H37Rv): 0.02 µg/mL; FICI (M. tuberculosis H37Rv; combination with linezolid): 1.34; MIC against H37Rv, MIC in combo. (M. tuberculosis H37Rv; in combination with INH): 0.007 µg/mL; MIC against H37Rv, MIC in combo. (M. tuberculosis H37Rv; in combination with LZD): 0.013 µg/mL; MIC against H37Rv, MIC in combo. (M. tuberculosis H37Rv; in combination with MOX): 0.008 µg/mL; FICI (M. tuberculosis H37Rv; in combination with RMP): 0.22; MIC against H37Rv, MIC in combo. (M. tuberculosis H37Rv; in combination with RMP): 0.001 µg/mL; decrease of MIC (M. tuberculosis H37Rv; in the presence of RMP): 5 fold; FICI (M. tuberculosis H37Rv; in the presence of isoniazid): 0.68; FICI (M. tuberculosis H37Rv; in the presence of moxifloxacin): 0.97; MIC [4]: 0.02 µg/mL (≈ 0.0461 µM); MIC (XDR-TB clinical isolates; read-out: MIC, XDR-TB strain X15): < 0.0156 µg/mL; MIC (XDR-TB clinical isolates; read-out: MIC, XDR-TB strain X17): < 0.0156 µg/mL; Log10 CFU, intracellular Mtb Erdman ([5]; J774A.1 macrophages, 0.02 μM (Fig. 2 legend: 0.02 μg/mL), 7 days): 4.77; Fold(log) reduction [5]: 2.08 log; Fold(log) reduction ([5]; listed as SKLB-1001): 2.1 log; MIC (Mycobacterium avium): 32 µg/mL (≈ 73.8 µM)

From publication PMC4942819 (Scientific Reports, 2016)
